{"source": "patent US20090215684A1", "about": "“Use of BPI Protein for Treatment of Diseases” (BRIDGE BIORESEARCH LIMITED, priority 2005, published 2009)", "molecules": {"B1": {"name": "BPI: human purified bactericidal/permeability-increasing (BPI) protein, 456 residues, approximately 55 kD (protein, listed as Homo sapiens)", "chain": "VNPGVVVRISQKGLDYASQQGTAALQKELKRIKIPDYSDSFKIKHLGKGHYSFYSMDIREFQLPSSQISMVPNVGLKFSISNANIKISGKWKAQKRFLKMSGNFDLSIEGMSISADLKLGSNPTSGKPTITASSCSSHINSVHVHISKSKVGWLIQLFHKKIESALRNKMNSQVCEKVTNSVSSKLQPYFQTL"}}, "key": {"[1]": {"test_system": "subjects with glucose intolerance", "assay": "Randomized clinical study of metformin vs placebo in glucose-intolerant patients: anthropometric and fasting variables", "type": "in vivo, human", "conditions": "mean ± SD; for BMI: 9 patients", "description": "The objective of this study was to evaluate the effects of changing insulin action—after treatment with an insulin sensitizer (metformin)—on circulating BPI in subjects with glucose intolerance.\nPatients were recruited from the Diabetes and Endocrinology Unit at Hospital de Girona Dr Josep Trueta. They were offered participation in the study if they were between 30 and 65 years old and fulfilled all the inclusion criteria. Men and women were both included, but women only when surgical sterility was documented or when they were post-menopausal or when a reliable method of contraception was used. The inclusion criteria were as follows: a) body mass index (BMI) between 22 and 35 kg/m^2, b) impaired glucose tolerance by an OGTT performed two months before the beginning of the study or a fasting glucose level between 110 and 140 mg/dl, c) stability of diet and physical exercise within the past two months. All subjects signed a written informed consent.\n(§1) The clinical study was performed in accordance with the Declaration of Helsinki (revised version of Hong Kong 1989) as well as with the EC Note for guidance “Good clinical practice for studies on medicinal products in the European Community”. It was approved by the local Ethics Committee and the Spanish Health Department (Clinical assay number: 97/337). Thirty-one patients were randomized either to placebo or metformin according to the randomization tablets supply generated by LIPHA using the computer program RANCODE +3.1. A dietician with the aim of assuring a stable weight gave general diabetic dietary advice at the beginning of the study. Two months after the first visit (visit 2) subjects started taking metformin or placebo, one tablet per day (850 mg) for the first week and then two tablets per day (one after breakfast and one after dinner) for the following eleven weeks. Drug compliance was checked by tablet counts and any side effect was recorded at visit 3 (6 weeks after randomization) and at visit 4 (at the end of the study).\nOut of 118 pre-selected subjects, 31 patients were randomized for the study (16 to metformin and 15 to placebo). Six patients ([…] and 3 on placebo) discontinued early and two non-compliant patients were excluded (both in metformin group). 21 patients (9 on metformin and 12 on placebo) were finally analyzed."}, "[2]": {"test_system": "subjects with glucose intolerance", "assay": "Oral glucose tolerance test (OGTT) in the metformin study", "type": "in vivo, human", "conditions": "mean ± SD", "protocol": "The clinical study was performed in accordance with the Declaration of Helsinki (revised version of Hong Kong 1989) as well as with the EC Note for guidance “Good clinical practice for studies on medicinal products in the European Community”. It was approved by the local Ethics Committee and the Spanish Health Department (Clinical assay number: 97/337). Thirty-one patients were randomized either to placebo or metformin according to the randomization tablets supply generated by LIPHA using the computer program RANCODE +3.1. A dietician with the aim of assuring a stable weight gave general diabetic dietary advice at the beginning of the study. […] Drug compliance was checked by tablet counts and any side effect was recorded at visit 3 (6 weeks after randomization) and at visit 4 (at the end of the study).\n(§2) To assess glucose tolerance, an OGTT was performed after an overnight fast. Insulin sensitivity was evaluated by HOMA (Homeostasis model assessment) using basal (mean of three samples obtained at 5 minutes interval) glucose and insulin (Bonora E, et al., Diabetes Care, 2000, vol. 23, pp. 57-63). Beta cell function was calculated by CIGMA (Continuous infusion of glucose with model assessment) from achieved C-peptide and glucose values (Hosker J P, et al., Diabetologia 1985, vol. 28, pp. 401-11). […]"}, "[3]": {"test_system": "subjects with glucose intolerance", "assay": "Insulin sensitivity by HOMA (Homeostasis model assessment) in the metformin study", "type": "in vivo, human", "conditions": "mean ± SD", "protocol": "as §1\nas §2, with “401-11). CIGMA test consists of a continuous intravenous infusion of 5-mg glucose per kg of ideal body weight.min^−1 using a 10 g.dl^−1 glucose solution with model assessment of glucose, insulin and C-peptide (RIA, Byk-Sangtec Diagnostica, Dietzenbach, Germany) values obtained before (basal value, mean value of three samples obtained at 5 minute intervals) and at the end (achieved value, mean value of samples obtained at 50, 55 and 60 minutes) of the test.” for “401-11).”"}, "[4]": {"test_system": "subjects with glucose intolerance", "assay": "CIGMA (continuous infusion of glucose with model assessment) in the metformin study", "type": "in vivo, human", "conditions": "mean ± SD; for Achieved C-peptide / Achieved glucose / Achieved insulin: after intravenous glucose", "protocol": "as §1\nTo assess glucose tolerance, an OGTT was performed after an overnight fast. Insulin sensitivity was evaluated by HOMA (Homeostasis model assessment) using basal (mean of three samples obtained at 5 minutes interval) glucose and insulin (Bonora E, et al., Diabetes Care, 2000, vol. 23, pp. 57-63). Beta cell function was calculated by CIGMA (Continuous infusion of glucose with model assessment) from achieved C-peptide and glucose values (Hosker J P, et al., Diabetologia 1985, vol. 28, pp. 401-11). CIGMA test consists of a continuous intravenous infusion of 5-mg glucose per kg of ideal body weight.min^−1 using a 10 g.dl^−1 glucose solution with model assessment of glucose, insulin and C-peptide (RIA, Byk-Sangtec Diagnostica, Dietzenbach, Germany) values obtained before (basal value, mean value of three samples obtained at 5 minute intervals) and at the end (achieved value, mean value of samples obtained at 50, 55 and 60 minutes) of the test. C-peptide detection level was 0.1 ng/ml and had intra- and inter-assay coefficients of variation of 2.6% and 4.4%."}, "BPI": {"test_system": "BPI", "assay": "Circulating plasma BPI (BPI ELISA) in the metformin study", "type": "in vivo, human", "protocol": "BPI ELISA: Plasma EDTA BPI concentrations were measured by a sandwich enzyme-linked immunosorbent assay (Human BPI ELISA kit, HyCult biotechnology b.v.; P B Uden, The Netherlands) according to the manufacturer's instructions. The kit has an assay sensitivity of 250 pg/ml. […] The clinical study was performed in accordance with the Declaration of Helsinki (revised version of Hong Kong 1989) as well as with the EC Note for guidance “Good clinical practice for studies on medicinal products in the European Community”. It was approved by the local Ethics Committee and the Spanish Health Department (Clinical assay number: 97/337). Thirty-one patients were randomized either to placebo or metformin according to the randomization tablets supply generated by LIPHA using the computer program RANCODE +3.1. A dietician with the aim of assuring a stable weight gave general diabetic dietary advice at the beginning of the study. Two months after the first visit (visit 2) subjects started taking metformin or placebo, one tablet per day (850 mg) for the first week and then two tablets per day (one after breakfast and one after dinner) for the following eleven weeks. Drug compliance was checked by tablet counts and any side effect was recorded at visit 3 (6 weeks after randomization) and at visit 4 (at the end of the study)."}, "ob/ob mice": {"test_system": "ob/ob mice", "assay": "Effects of administration of BPI on blood glucose concentration in ob/ob mice", "type": "in vivo", "protocol": "The objective of this study was to evaluate the effects of administration of BPI on glucose concentration on ob/ob mice\nObese mice ob/ob were treated for 6 days with a daily intraperitoneal dose of 2.5 ng of human purified BPI per gram of body weight or vehicle (control mice). Before the treatment both groups (control and BPI treated) presented a high glycemia and no differences were identified between both groups (342±33 and 342±38 mg/dl, respectively)."}, "[5]": {"conditions": "metformin, 12 weeks, p<0.05 within group"}, "[6]": {"conditions": "metformin, 12 weeks, p<0.05 within group, listed as metformin"}}, "note": "Several values for one entry are separate records, joined by “and”; a condition that tells them apart may be missing. Equal entries are not always repeated. Marks after values point to notes of the source that are not given here."}
{"molecule": "CN(C)C(=N)N=C(N)N", "note": "[Metformin, metformin]", "values": [{"measurement": "BMI", "setting": "[1]; metformin 850 mg tablets, two per day, 12 weeks", "value": "27.7 ± 4.3", "unit": "Kg/m^2"}, {"measurement": "BMI", "setting": "[1]; metformin group, baseline (before treatment)", "value": "28.0 ± 4.5", "unit": "Kg/m^2"}, {"measurement": "Fasting C-peptide", "setting": "[1]; metformin group, baseline", "value": "2.5 ± 0.7", "unit": "ng/mL"}, {"measurement": "Fasting glucose", "setting": "[1]; metformin group, baseline", "value": "110.1 ± 9.9", "unit": "mg/dL"}, {"measurement": "Fasting insulin", "setting": "[1]; metformin group, baseline", "value": "11.6 ± 5.4", "unit": "mU/l"}, {"measurement": "Waist circumference", "setting": "[1]; metformin group, baseline", "value": "95.9 ± 11.5"}, {"measurement": "Waist-to-hip ratio", "setting": "[1]; metformin group, baseline", "value": "0.96 ± 0.1"}, {"measurement": "Waist circumference", "setting": "[1]; metformin, 12 weeks", "value": "94.8 ± 9.4"}, {"measurement": "Waist-to-hip ratio", "setting": "[1]; metformin, 12 weeks", "value": "0.92 ± 0.07"}, {"measurement": "Fasting glucose", "setting": "[1]; metformin, 12 weeks, p<0.01 within group", "value": "98.9 ± 15.7^a mg/dl"}, {"measurement": "Fasting glucose", "setting": "[1]; metformin, 12 weeks, p<0.01 within group, listed as metformin", "value": "decreased"}, {"measurement": "Fasting C-peptide", "setting": "[1]; [5]", "value": "1.8 ± 0.5^b ng/ml"}, {"measurement": "Fasting insulin", "setting": "[1]; [5]", "value": "8.8 ± 3.5^b mU/l"}, {"measurement": "Fasting C-peptide", "setting": "[1]; [6]", "value": "statistically lower"}, {"measurement": "Fasting insulin", "setting": "[1]; [6]", "value": "statistically lower"}, {"measurement": "120′ OGTT glucose", "setting": "[2]; metformin group, baseline", "value": "162.2 ± 27.8", "unit": "mg/dL"}, {"measurement": "120′ OGTT glucose", "setting": "[2]; metformin, 12 weeks", "value": "140.6 ± 42.9", "unit": "mg/dL"}, {"measurement": "HOMA sensitivity", "setting": "[3]; metformin group, baseline", "value": "37.4 ± 15.2", "unit": "%"}, {"measurement": "HOMA sensitivity", "setting": "[3]; [5]", "value": "50.4 ± 23.2^b %"}, {"measurement": "HOMA sensitivity", "setting": "[3]; [6]", "value": "improved"}, {"measurement": "Achieved C-peptide", "setting": "[4]; metformin group, baseline", "value": "5.2 ± 1.2", "unit": "ng/mL"}, {"measurement": "Achieved glucose", "setting": "[4]; metformin group, baseline", "value": "190.5 ± 18.9", "unit": "mg/dL"}, {"measurement": "Achieved insulin", "setting": "[4]; metformin group, baseline", "value": "28.5 ± 13.5", "unit": "mU/l"}, {"measurement": "Achieved glucose", "setting": "[4]; metformin, 12 weeks", "value": "174.6 ± 34.5", "unit": "mg/dL"}, {"measurement": "Achieved insulin", "setting": "[4]; metformin, 12 weeks", "value": "23.3 ± 7.6", "unit": "mU/l"}, {"measurement": "Achieved C-peptide", "setting": "[4]; [5]", "value": "4.2 ± 1.0^b ng/ml"}, {"measurement": "Achieved C-peptide", "setting": "[4]; [6]", "value": "statistically lower"}, {"measurement": "CIGMA beta cell function", "setting": "[4]; metformin group, baseline", "value": "82.8 ± 24.0", "unit": "%"}, {"measurement": "CIGMA beta cell function", "setting": "[4]; metformin, 12 weeks", "value": "90.9 ± 34.0", "unit": "%"}, {"measurement": "CIGMA beta cell function", "setting": "[4]; metformin, 12 weeks, listed as metformin", "value": "not modified"}, {"measurement": "BPI (circulating, plasma)", "setting": "BPI; metformin group, baseline, median (interquartile range 1.26-7.73)", "value": 2.75, "unit": "ng/mL"}, {"measurement": "BPI (circulating, plasma)", "setting": "BPI; metformin, 12 weeks, median (interquartile range 2.56-38.8), p = 0.017 within group", "value": 7.49, "unit": "ng/mL"}, {"measurement": "BPI (circulating, plasma)", "setting": "BPI; metformin, 12 weeks, median (interquartile range 2.56-38.8), p = 0.017 within group, listed as metformin", "value": "significantly increased"}]}
{"molecule": "B1", "values": [{"measurement": "GLU (blood glucose concentration), Mean", "setting": "ob/ob mice; BPI treated group, day 0 (before the treatment)", "value": "342 ± 38 mg/dL and 341.67 mg/dL"}, {"measurement": "GLU (blood glucose concentration), Mean", "setting": "ob/ob mice; daily intraperitoneal 2.5 ng human purified BPI per gram body weight, 3 days of treatment", "value": 289.00, "unit": "mg/dL"}, {"measurement": "GLU (blood glucose concentration), Mean", "setting": "ob/ob mice; daily intraperitoneal 2.5 ng human purified BPI per gram body weight, 6 days of treatment", "value": "261 ± 21 mg/dL and 261.80 mg/dL"}, {"measurement": "Effect on glycemia", "setting": "ob/ob mice; treatment for 3 or 6 days with 2.5 ng/g BPI i.p. daily, vs control", "value": "pronounced decrease of glycemia"}]}
